Experimental data from US5470873A, “Diabetes prevention and treatment using gamma-pyrones” (University Technologies International, Inc., priority 1994, dated 1995).
Where “and” joins values, the source holds several entries; their conditions need not be identical. Equal entries are not always repeated. Entries after “also recorded” stand apart in the source; their conditions may differ.

Tests used:
[1] = Blood glucose levels in GK rats (NIDDM model), glucose tolerance test; type: in vivo
Description: To see whether DPD, alone or in combination with other modalities, had any effect on the control of blood glucose levels, GK rats were treated daily from 4 to 14 weeks of age with one of the following: At 14 weeks of age, glucose tolerance tests were performed by intraperitoneal injection of 2 mg glucose/gm body weight. Blood glucose levels were determined 60 minutes later using methods previously described^64-67. Rats receiving DPD alone were intubated daily with a 1.18 % (w/v) solution of DPD in PBS. At 4 weeks of age, rats received 0.5 ml of the 1.18% solution of DPD. This was increased by 0.1 ml/week so that rats at 14 weeks of age received 1.5 ml of the 1.18% solution of DPD. Control rats received the same volume of PBS only. Rats receiving OSA alone were intubated daily with an aqueous extract of OSA. The extract was prepared by adding 10% dried powdered OSA plant to boiling water, keeping the mixture at the boiling point in a sealed container for 3-4 hours, removing the supernatant, then cooling it for use in intubating the GK rats. This supernatant will be referred to as 10% OSA extract. At 4 weeks of age, rats received 0.5 ml of the 10% OSA extract. This was increased by about 0.15 ml/week so that rats at 14 weeks of age received 2.0 ml of the 10% OSA extract. Control rats received the same volume of PBS. […]

[2] = Prevention of clinical diabetes (glycosuria) in NOD mice; type: in vivo; conditions: observed to 35 weeks, incl. 15 weeks after cessation of treatment
Description: NOD mice were dosed with maltol to evaluate its effect on the pathogenesis of type I diabetes. Mice received 5 mg maltol/mouse every other day from age 2 weeks until they were 20 weeks old. Maltol extracted from ginseng as described in Example 2 was used for the first 10 weeks, then maltol purchased from Sigma Co., St. Louis, MO was used thereafter. The mice were kept until they were 35 weeks old. Urine glucose was measured at 3-day intervals from 10 to 35 weeks of age. Urinary glucose and ketone levels were determined using Diastix and Ketostix reagent slips (Miles, Ontario, Canada). Individual mice were classified as being diabetic on the basis of positive glycosuria^38. […] In contrast, 78% of age-matched control mice (22 mice) spontaneously developed autoimmune diabetes. At 35 weeks of age, fasting (8 hours of fasting) and non-fasting blood glucose levels were measured. Blood was obtained from the retro-orbital venous plexus of fasting and nonfasting NOD mice. Glucose levels were measured enzymatically by the glucose oxidase method with o-dianisidine dihydrochloride as the reactive dye ^39-41 . The mean nonfasting blood glucose level of 35 ICR mice (nondiabetic control mice; NOD mice were derived from ICR mice) was 149±27 mg/dl. Any non-fasting mouse with a blood glucose level greater than 230 mg/dl (3 SD above the mean) was scored as diabetic. The mean fasting blood glucose level of 38 ICR mice was 137±28 mg/dl. Any fasting mouse with a blood glucose level greater than 221 mg/dl (3 SD above the mean) was scored as diabetic.

pancreatic islets = assay: Histologic changes of pancreatic islets (hematoxylin and eosin); type: in vivo, NOD mice; design: key to Diabetes: "+" indicates "yes"; "-" indicates "no"
Source text: Maltol-treated and untreated NOD mice were sacrificed and 25% of each pancreas was fixed in 6% Formalin. Paraffin-embedded sections were stained with hematoxylin and eosin and examined under an Olympus light microscope ^49. To see whether there are any histological differences between the pancreatic islets of DPD-treated and untreated NOD mice, the pancreatic islets of 35 week old mice were examined with the light microscope after staining with hematoxylin and eosin. […] The rest of their islets were rated as having either severe (22%), moderate (27%), mild (25%) or no (6%) insulitis. […] In addition, there were histopathological changes in their pancreatic islets that were rated as moderate (22% of examined islets), mild (30%) or as having no insulitis (15%).

[3] = individual DPD-treated non-diabetic NOD mice (animal 1-5), 35 weeks

Cc1occc(=O)c1O [DPD, maltol]
Blood Glucose ([1]; DPD 1.18% (w/v) in PBS oral daily, 4 to 14 weeks of age, 60 minutes after i.p. 2 mg glucose/gm, PBS control 389 ± 23): 349 ± 42 mg/dL
Effect on control of blood glucose levels (in words) ([1]; GK rats): some reduction of blood glucose levels
Prevention / recurrence of clinical diabetes (in words) [2]: no recurrence of the disease; also recorded: prevented clinical diabetes completely; also recorded: prevents the onset of clinical diabetes
Diabetes (pancreatic islets; Table 2, individual DPD-treated NOD mice): -
Mild histopathological changes, share of examined islets (pancreatic islets; group of DPD-treated NOD mice): 30%
Moderate histopathological changes, share of examined islets (pancreatic islets; group of DPD-treated NOD mice): 22%
No insulitis, share of examined islets (pancreatic islets; group of DPD-treated NOD mice): 15%
Severe insulitis, share of examined islets (pancreatic islets; group of DPD-treated NOD mice, untreated diabetic 35%): about 19%
Severe beta cell necrosis, share of examined islets (pancreatic islets; group of DPD-treated NOD mice, untreated diabetic 64%): approximately 14%
Beta Cell Necrosis, islets affected / islets examined (pancreatic islets; [3]): 5/31 and 5/32 and 3/28 and 4/32
Beta Cell Necrosis, percent of islets (pancreatic islets; [3]): 16% and 11% and 13%
Intact Islet, islets / islets examined (pancreatic islets; [3]): 4/31 and 5/32 and 4/28
Intact Islet, percent of islets (pancreatic islets; [3]): 19% and 15% and 14% and 13%
Mild Insulitis, islets affected / islets examined (pancreatic islets; [3]): 9/31 and 8/32 and 11/28 and 10/31 and 9/32
Mild Insulitis, percent of islets (pancreatic islets; [3]): 29% and 25% and 39% and 33% and 28%
Moderate Insulitis, islets affected / islets examined (pancreatic islets; [3]): 7/31 and 8/32 and 5/28 and 6/31
Moderate Insulitis, percent of islets (pancreatic islets; [3]): 23% and 25% and 18% and 19%
Severe Insulitis, islets affected / islets examined (pancreatic islets; [3]): 6/31 and 6/32 and 5/28
Severe Insulitis, percent of islets (pancreatic islets; [3]): 19% and 18%
